Reference: PubChem BioAssay AID1259407 (Chemical Carcinogenesis Research Information System (CCRIS), 2018)
Active and inactive are the calls of the source. How the calls were made is not given here.

System: CCRIS mutagenicity, Ames/micronucleus/aberration tests
Test: CCRIS mutagenicity studies
[1] = Test System: AMES SALMONELLA TYPHIMURIUM, Strain/Indicator: TA100, Metabolic Activation: NONE, Method: PREINCUBATION
[2] = Test System: AMES SALMONELLA TYPHIMURIUM, Strain/Indicator: TA100, Metabolic Activation: NONE, Method: STANDARD PLATE
[3] = Test System: AMES SALMONELLA TYPHIMURIUM, Strain/Indicator: TA100, Metabolic Activation: RAT, LIVER, S-9, AROCLOR 1254, Method: STANDARD PLATE
[4] = Test System: AMES SALMONELLA TYPHIMURIUM, Strain/Indicator: TA1535, Metabolic Activation: NONE, Method: STANDARD PLATE
[5] = Test System: AMES SALMONELLA TYPHIMURIUM, Strain/Indicator: TA98, Metabolic Activation: NONE, Method: PREINCUBATION
[6] = Test System: AMES SALMONELLA TYPHIMURIUM, Strain/Indicator: TA98, Metabolic Activation: NONE, Method: STANDARD PLATE
[7] = Test System: AMES SALMONELLA TYPHIMURIUM, Strain/Indicator: TA98, Metabolic Activation: RAT, LIVER, S-9, AROCLOR 1254, Method: STANDARD PLATE

## CCCCCCCCCC(=O)OCCN1CCN(CCCN2c3ccccc3Sc3ccc(C(F)(F)F)cc32)CC1
Test System: AMES SALMONELLA TYPHIMURIUM, Strain/Indicator: TA98, Metabolic Activation: NONE
  mutagenic call: inactive; negative
Test System: AMES SALMONELLA TYPHIMURIUM, Strain/Indicator: TA98, Metabolic Activation: RAT, LIVER, S-9, PHENOBARBITAL AND 5,6-BENZOFLAVONE
  mutagenic call: inactive; negative
[1]
  mutagenic call: inactive; negative
Test System: AMES SALMONELLA TYPHIMURIUM, Strain/Indicator: TA100, Metabolic Activation: RAT, LIVER, S-9, PHENOBARBITAL AND 5,6-BENZOFLAVONE
  mutagenic call: inactive; negative
Test System: AMES SALMONELLA TYPHIMURIUM, Strain/Indicator: TA1535, Metabolic Activation: NONE
  mutagenic call: inactive; negative
Test System: AMES SALMONELLA TYPHIMURIUM, Strain/Indicator: TA1535, Metabolic Activation: RAT, LIVER, S-9, PHENOBARBITAL AND 5,6-BENZOFLAVONE
  mutagenic call: inactive; negative
Test System: AMES SALMONELLA TYPHIMURIUM, Strain/Indicator: TA1537, Metabolic Activation: NONE
  mutagenic call: inactive; negative
Test System: AMES SALMONELLA TYPHIMURIUM, Strain/Indicator: TA1537, Metabolic Activation: RAT, LIVER, S-9, PHENOBARBITAL AND 5,6-BENZOFLAVONE
  mutagenic call: inactive; negative
Test System: E. COLI, Strain/Indicator: WP2 UVRA, Metabolic Activation: NONE
  mutagenic call: inactive; negative
Test System: E. COLI, Strain/Indicator: WP2 UVRA, Metabolic Activation: RAT, LIVER, S-9, PHENOBARBITAL AND 5,6-BENZOFLAVONE
  mutagenic call: inactive; negative

## COc1cc2c(c3oc(=O)c4c(c13)[C@@H](O)CC4=O)[C@@H]1C=CO[C@@H]1O2
Test System: AMES SALMONELLA TYPHIMURIUM, Strain/Indicator: TA98, Metabolic Activation: HUMAN, LIVER, S-9, Method: STANDARD PLATE
  mutagenic call: inactive; negative
Test System: AMES SALMONELLA TYPHIMURIUM, Strain/Indicator: TA100, Metabolic Activation: HUMAN, LIVER, S-9, Method: STANDARD PLATE
  mutagenic call: inactive; negative
[2]
  mutagenic call: active; positive
[3]
  mutagenic call: active; positive

## N[C@@H](CS)C(=O)OC(=O)NCCCl
[4]
  mutagenic call: active; positive

## O=[N+]([O-])c1ccc2ccc3cccc4c3c2c1C1OC41 (configuration not stated)
Test System: AMES SALMONELLA TYPHIMURIUM, Strain/Indicator: TA98(1,8-DNP6), Metabolic Activation: RAT, LIVER, S-9, PHENOBARBITAL AND 5,6-BENZOFLAVONE, Method: PREINCUBATION
  mutagenic call: active; positive
Test System: AMES SALMONELLA TYPHIMURIUM, Strain/Indicator: TA98(NR), Metabolic Activation: NONE, Method: PREINCUBATION
  mutagenic call: active; positive
[5]
  mutagenic call: active; positive
Test System: AMES SALMONELLA TYPHIMURIUM, Strain/Indicator: TA98, Metabolic Activation: RAT, LIVER, S-9, PHENOBARBITAL AND 5,6-BENZOFLAVONE, Method: PREINCUBATION
  mutagenic call: inactive; negative
[1]
  mutagenic call: active; positive
Test System: AMES SALMONELLA TYPHIMURIUM, Strain/Indicator: TA100, Metabolic Activation: RAT, LIVER, S-9, PHENOBARBITAL AND 5,6-BENZOFLAVONE, Method: PREINCUBATION
  mutagenic call: inactive; negative
Test System: CHINESE HAMSTER OVARY, Strain/Indicator: CHO (HGPRT)/6-THIOGUANINE, Metabolic Activation: NONE, Method: STANDARD PLATE
  mutagenic call: active; positive
Test System: CHINESE HAMSTER OVARY, Strain/Indicator: CHO (HGPRT)/6-THIOGUANINE, Metabolic Activation: RAT, LIVER, S-9, AROCLOR 1254, Method: STANDARD PLATE
  mutagenic call: active; positive
Test System: UDS RODENT HEPATOCYTES, Strain/Indicator: THY INCORP, Metabolic Activation: NONE, Method: AUTORADIOGRAPHY
  mutagenic call: active; positive

## CCC(CCC(C)=O)COC(=O)CCCCC(=O)O (configuration not stated)
Test System: AMES SALMONELLA TYPHIMURIUM, Strain/Indicator: TA97, Metabolic Activation: NONE, Method: STANDARD PLATE
  mutagenic call: inactive; negative
Test System: AMES SALMONELLA TYPHIMURIUM, Strain/Indicator: TA97, Metabolic Activation: RAT, LIVER, S-9, AROCLOR 1254, Method: STANDARD PLATE
  mutagenic call: inactive; negative
Test System: AMES SALMONELLA TYPHIMURIUM, Strain/Indicator: TA97, Metabolic Activation: RAT, LIVER, S-9, DI(2-ETHYLHEXYL)PHTHALATE, Method: STANDARD PLATE
  mutagenic call: inactive; negative
[6]
  mutagenic call: inactive; negative
[7]
  mutagenic call: inactive; negative
Test System: AMES SALMONELLA TYPHIMURIUM, Strain/Indicator: TA98, Metabolic Activation: RAT, LIVER, S-9, DI(2-ETHYLHEXYL)PHTHALATE, Method: STANDARD PLATE
  mutagenic call: inactive; negative
[2]
  mutagenic call: inactive; negative
[3]
  mutagenic call: inactive; negative
Test System: AMES SALMONELLA TYPHIMURIUM, Strain/Indicator: TA100, Metabolic Activation: RAT, LIVER, S-9, DI(2-ETHYLHEXYL)PHTHALATE, Method: STANDARD PLATE
  mutagenic call: inactive; negative
Test System: AMES SALMONELLA TYPHIMURIUM, Strain/Indicator: TA102, Metabolic Activation: NONE, Method: STANDARD PLATE
  mutagenic call: inactive; negative
Test System: AMES SALMONELLA TYPHIMURIUM, Strain/Indicator: TA102, Metabolic Activation: RAT, LIVER, S-9, AROCLOR 1254, Method: STANDARD PLATE
  mutagenic call: inactive; negative
Test System: AMES SALMONELLA TYPHIMURIUM, Strain/Indicator: TA102, Metabolic Activation: RAT, LIVER, S-9, DI(2-ETHYLHEXYL)PHTHALATE, Method: STANDARD PLATE
  mutagenic call: inactive; negative

## Nc1ccc2cccnc2c1
[5]
  mutagenic call: inactive; negative
Test System: AMES SALMONELLA TYPHIMURIUM, Strain/Indicator: TA98, Metabolic Activation: RAT, LIVER, S-9, KANECHLOR 500 OR PHENOBARBITAL AND BETA-NAPHTHOFLAVONE, Method: PREINCUBATION
  mutagenic call: active; positive
[1]
  mutagenic call: active; positive
Test System: AMES SALMONELLA TYPHIMURIUM, Strain/Indicator: TA100, Metabolic Activation: RAT, LIVER, S-9, KANECHLOR 500 OR PHENOBARBITAL AND BETA-NAPHTHOFLAVONE, Method: PREINCUBATION
  mutagenic call: active; positive

## Clc1cc(Cl)nc(Cl)n1
Test System: AMES SALMONELLA TYPHIMURIUM, Strain/Indicator: TA98, Metabolic Activation: HAMSTER, LIVER, S-9, AROCLOR 1254, Method: STANDARD PLATE
  mutagenic call: inactive; negative
[6]
  mutagenic call: inactive; negative
[7]
  mutagenic call: inactive; negative
Test System: AMES SALMONELLA TYPHIMURIUM, Strain/Indicator: TA100, Metabolic Activation: HAMSTER, LIVER, S-9, AROCLOR 1254, Method: STANDARD PLATE
  mutagenic call: inactive; negative
[2]
  mutagenic call: inactive; negative
[3]
  mutagenic call: inactive; negative
Test System: AMES SALMONELLA TYPHIMURIUM, Strain/Indicator: TA1535, Metabolic Activation: HAMSTER, LIVER, S-9, AROCLOR 1254, Method: STANDARD PLATE
  mutagenic call: inactive; negative
[4]
  mutagenic call: inactive; negative
Test System: AMES SALMONELLA TYPHIMURIUM, Strain/Indicator: TA1535, Metabolic Activation: RAT, LIVER, S-9, AROCLOR 1254, Method: STANDARD PLATE
  mutagenic call: inactive; negative
Test System: AMES SALMONELLA TYPHIMURIUM, Strain/Indicator: TA1537, Metabolic Activation: HAMSTER, LIVER, S-9, AROCLOR 1254, Method: STANDARD PLATE
  mutagenic call: inactive; negative
Test System: AMES SALMONELLA TYPHIMURIUM, Strain/Indicator: TA1537, Metabolic Activation: NONE, Method: STANDARD PLATE
  mutagenic call: inactive; negative
Test System: AMES SALMONELLA TYPHIMURIUM, Strain/Indicator: TA1537, Metabolic Activation: RAT, LIVER, S-9, AROCLOR 1254, Method: STANDARD PLATE
  mutagenic call: inactive; negative
Test System: AMES SALMONELLA TYPHIMURIUM, Strain/Indicator: TA1538, Metabolic Activation: HAMSTER, LIVER, S-9, AROCLOR 1254, Method: STANDARD PLATE
  mutagenic call: inactive; negative
Test System: AMES SALMONELLA TYPHIMURIUM, Strain/Indicator: TA1538, Metabolic Activation: NONE, Method: STANDARD PLATE
  mutagenic call: inactive; negative
Test System: AMES SALMONELLA TYPHIMURIUM, Strain/Indicator: TA1538, Metabolic Activation: RAT, LIVER, S-9, AROCLOR 1254, Method: STANDARD PLATE
  mutagenic call: inactive; negative
Test System: Mouse lymphoma, Strain/Indicator: L5178Y (tk+/tk-), Metabolic Activation: None, Method: Suspension/plate
  mutagenic call: active; inconclusive (previous evaluation positive)
Test System: Mouse lymphoma, Strain/Indicator: L5178Y (tk+/tk-), Metabolic Activation: Rat, Liver, S-9, Aroclor 1254, Method: Suspension/plate
  mutagenic call: active; positive
